Experimental data from article PMC10174618, “Monoterpenoid aryl hydrocarbon receptor allosteric antagonists protect against ultraviolet skin damage in female mice” (Nature Communications, 2023).

Tests used:
Test in all cases: biochemical
Set-up in all cases: KINOMEscan scanMAX active site-directed competition binding assay, percent of control, 468 kinases
Details in all cases: competition binding, percent of control
TSSK3 = TSSK3 (Homo sapiens, UniProt Q96PN8)
Experimental: (§1) The KINOMEscan^TM screening platform (scanMAX assay) employs a proprietary active site-directed competition binding assay that quantitatively measures the interactions between test compounds (here 100 μM S-carvone) and 468 human protein kinases. The assay was performed at Eurofins DiscoverX Corp. (Fremont, CA, USA). Blocking protein kinase C (PKC) activity was reported to inhibit the transcription of CYP1A1 but to exert no effect on the nuclear translocation of AhR[26], which was also the case here with carvones. Therefore, we tested whether carvones inhibit PKC catalytic activity. […] We also evaluated the interaction between 100 μM S-carvone and 468 human protein kinases, employing KINOMEscan^TM (scanMAX assay), a proprietary active site-directed competition binding assay. The minimal inhibitory threshold used by the screening platform KINOMEscan^TM is 35% of the control kinase activity. Among 468 kinases tested, 467 were above the 35% cutoff. Tyrosine kinase 2 TK2 (JH2 domain pseudokinase) activity was inhibited to 27% of the control activity, but this kinase is not relevant to the regulation of transcription activity (Fig. 5B; Figure S9). Overall, we excluded the possibility that the effects of carvones on AhR signaling are caused indirectly by the inhibition of the human kinome, particularly PKC.

NDR1 = biological target: T1, NDR1 (Homo sapiens, UniProt Q15208)
T1 construct: gene STK38
Experimental: as §1

MLK3 = biological target: T2, MLK3 (Homo sapiens, UniProt Q16584)
T2 construct: gene MAP3K11
Experimental: as §1

PRKG2 = PRKG2 (Homo sapiens, UniProt Q13237)
Experimental: as §1

CSF1R-autoinhibited = CSF1R-autoinhibited (Homo sapiens, UniProt P07333)
Experimental: as §1

CAMK4 = CAMK4 (Homo sapiens, UniProt Q16566)
Experimental: as §1

KIT(L576P) = KIT(L576P) (Homo sapiens, UniProt P10721, L576P)
Experimental: as §1

QSK = biological target: T3, QSK (Homo sapiens, UniProt Q9Y2K2)
T3 construct: gene SIK3
Experimental: as §1

CDK11 = biological target: T4, CDK11 (Homo sapiens, UniProt Q9BWU1)
T4 construct: gene CDK19
Experimental: as §1

SRPK3 = SRPK3 (Homo sapiens, UniProt Q9UPE1)
Experimental: as §1

MET(M1250T) = MET(M1250T) (Homo sapiens, UniProt P08581, M1250T)
Experimental: as §1

SRC = SRC (Homo sapiens, UniProt P12931)
Experimental: as §1

AKT1 = AKT1 (Homo sapiens, UniProt P31749)
Experimental: as §1

ANKK1 = ANKK1 (Homo sapiens, UniProt Q8NFD2)
Experimental: as §1

CHEK1 = CHEK1 (Homo sapiens, UniProt O14757)
Experimental: as §1

DDR2 = DDR2 (Homo sapiens, UniProt Q16832)
Experimental: as §1

[1] = biological target: T5, ABL1(Q252H)-phosphorylated (Homo sapiens, UniProt P00519, Q252H)
T5 construct: phosphorylated
Experimental: as §1

MLK1 = biological target: T6, MLK1 (Homo sapiens, UniProt P80192)
T6 construct: gene MAP3K9
Experimental: as §1

VRK2 = VRK2 (Homo sapiens, UniProt Q86Y07)
Experimental: as §1

AURKC = AURKC (Homo sapiens, UniProt Q9UQB9)
Experimental: as §1

LATS2 = LATS2 (Homo sapiens, UniProt Q9NRM7)
Experimental: as §1

ABL1-phosphorylated = biological target: T7, ABL1-phosphorylated (Homo sapiens, UniProt P00519)
T7 construct: phosphorylated
Experimental: as §1

CAMK4, sequence (Q16566 whole entry): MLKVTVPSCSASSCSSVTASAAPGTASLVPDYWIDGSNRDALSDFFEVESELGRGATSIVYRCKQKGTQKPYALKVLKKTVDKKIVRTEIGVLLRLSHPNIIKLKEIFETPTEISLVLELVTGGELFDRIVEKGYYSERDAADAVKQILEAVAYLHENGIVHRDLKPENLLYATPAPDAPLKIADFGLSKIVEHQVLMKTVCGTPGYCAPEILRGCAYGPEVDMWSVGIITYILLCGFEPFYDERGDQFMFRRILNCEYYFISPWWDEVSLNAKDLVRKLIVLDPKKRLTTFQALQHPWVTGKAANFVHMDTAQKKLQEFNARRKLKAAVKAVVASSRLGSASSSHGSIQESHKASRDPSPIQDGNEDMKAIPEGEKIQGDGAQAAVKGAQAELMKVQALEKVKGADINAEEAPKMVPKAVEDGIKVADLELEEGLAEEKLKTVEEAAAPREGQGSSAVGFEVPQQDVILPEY
AKT1, sequence (P31749 whole entry): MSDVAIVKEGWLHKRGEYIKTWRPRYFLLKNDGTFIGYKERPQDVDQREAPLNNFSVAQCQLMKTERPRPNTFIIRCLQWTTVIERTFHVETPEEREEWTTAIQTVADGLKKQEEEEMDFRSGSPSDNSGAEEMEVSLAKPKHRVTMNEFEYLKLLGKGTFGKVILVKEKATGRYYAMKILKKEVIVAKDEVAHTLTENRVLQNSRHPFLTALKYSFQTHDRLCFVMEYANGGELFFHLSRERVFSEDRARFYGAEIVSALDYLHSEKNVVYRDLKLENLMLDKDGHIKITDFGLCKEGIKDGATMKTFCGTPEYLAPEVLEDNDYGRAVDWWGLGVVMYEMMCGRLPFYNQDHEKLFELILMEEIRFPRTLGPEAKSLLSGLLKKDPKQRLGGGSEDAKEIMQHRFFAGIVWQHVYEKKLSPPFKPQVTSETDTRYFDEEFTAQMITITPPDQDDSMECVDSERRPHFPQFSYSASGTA
SRC, sequence (P12931 whole entry): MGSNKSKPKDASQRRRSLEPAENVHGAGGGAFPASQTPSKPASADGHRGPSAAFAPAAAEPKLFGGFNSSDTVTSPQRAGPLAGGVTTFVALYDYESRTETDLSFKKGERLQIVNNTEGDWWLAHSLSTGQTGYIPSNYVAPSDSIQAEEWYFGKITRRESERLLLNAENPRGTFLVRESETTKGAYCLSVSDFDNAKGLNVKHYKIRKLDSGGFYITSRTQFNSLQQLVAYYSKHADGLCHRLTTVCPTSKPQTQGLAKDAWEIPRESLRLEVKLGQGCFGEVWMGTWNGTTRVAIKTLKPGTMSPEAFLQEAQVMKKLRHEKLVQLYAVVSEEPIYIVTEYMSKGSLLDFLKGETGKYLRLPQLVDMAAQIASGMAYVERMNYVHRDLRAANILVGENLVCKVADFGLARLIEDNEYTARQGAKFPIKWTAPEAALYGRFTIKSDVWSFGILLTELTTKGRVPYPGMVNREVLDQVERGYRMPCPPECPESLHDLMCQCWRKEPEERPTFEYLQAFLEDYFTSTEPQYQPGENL
T2 sequence (Q16584 whole entry): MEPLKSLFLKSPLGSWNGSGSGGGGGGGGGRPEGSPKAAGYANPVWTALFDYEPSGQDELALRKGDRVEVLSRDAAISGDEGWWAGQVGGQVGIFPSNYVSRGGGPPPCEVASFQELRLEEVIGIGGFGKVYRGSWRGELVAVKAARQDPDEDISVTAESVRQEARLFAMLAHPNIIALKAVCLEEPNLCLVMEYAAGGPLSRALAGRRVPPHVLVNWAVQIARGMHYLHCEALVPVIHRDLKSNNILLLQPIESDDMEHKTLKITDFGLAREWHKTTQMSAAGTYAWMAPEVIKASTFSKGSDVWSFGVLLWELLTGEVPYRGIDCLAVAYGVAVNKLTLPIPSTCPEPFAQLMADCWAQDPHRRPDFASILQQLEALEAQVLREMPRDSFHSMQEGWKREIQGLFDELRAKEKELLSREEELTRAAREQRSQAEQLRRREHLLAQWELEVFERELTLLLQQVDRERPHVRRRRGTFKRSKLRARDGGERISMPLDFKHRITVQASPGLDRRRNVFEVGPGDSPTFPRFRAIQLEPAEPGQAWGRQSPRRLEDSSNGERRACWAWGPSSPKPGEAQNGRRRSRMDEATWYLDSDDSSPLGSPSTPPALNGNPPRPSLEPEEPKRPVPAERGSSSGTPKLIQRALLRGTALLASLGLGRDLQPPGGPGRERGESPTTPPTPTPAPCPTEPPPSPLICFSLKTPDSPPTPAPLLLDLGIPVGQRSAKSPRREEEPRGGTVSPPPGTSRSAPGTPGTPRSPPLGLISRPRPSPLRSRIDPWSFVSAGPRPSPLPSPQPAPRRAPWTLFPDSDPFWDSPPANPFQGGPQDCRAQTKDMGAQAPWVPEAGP
T1 sequence (Q15208 whole entry): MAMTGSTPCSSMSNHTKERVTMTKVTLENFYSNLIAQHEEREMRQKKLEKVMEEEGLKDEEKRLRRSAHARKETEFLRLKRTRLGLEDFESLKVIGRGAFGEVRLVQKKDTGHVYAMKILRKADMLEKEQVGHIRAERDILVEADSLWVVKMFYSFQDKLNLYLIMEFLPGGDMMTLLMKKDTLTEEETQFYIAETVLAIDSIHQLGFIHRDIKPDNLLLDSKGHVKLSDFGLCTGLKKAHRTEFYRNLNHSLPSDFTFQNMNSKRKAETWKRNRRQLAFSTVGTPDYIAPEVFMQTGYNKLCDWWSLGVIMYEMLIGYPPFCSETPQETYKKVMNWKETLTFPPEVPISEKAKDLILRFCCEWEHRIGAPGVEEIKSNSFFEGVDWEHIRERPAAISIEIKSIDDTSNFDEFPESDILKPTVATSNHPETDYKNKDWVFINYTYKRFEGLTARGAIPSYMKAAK
MET(M1250T), sequence (P08581 whole entry M1250T): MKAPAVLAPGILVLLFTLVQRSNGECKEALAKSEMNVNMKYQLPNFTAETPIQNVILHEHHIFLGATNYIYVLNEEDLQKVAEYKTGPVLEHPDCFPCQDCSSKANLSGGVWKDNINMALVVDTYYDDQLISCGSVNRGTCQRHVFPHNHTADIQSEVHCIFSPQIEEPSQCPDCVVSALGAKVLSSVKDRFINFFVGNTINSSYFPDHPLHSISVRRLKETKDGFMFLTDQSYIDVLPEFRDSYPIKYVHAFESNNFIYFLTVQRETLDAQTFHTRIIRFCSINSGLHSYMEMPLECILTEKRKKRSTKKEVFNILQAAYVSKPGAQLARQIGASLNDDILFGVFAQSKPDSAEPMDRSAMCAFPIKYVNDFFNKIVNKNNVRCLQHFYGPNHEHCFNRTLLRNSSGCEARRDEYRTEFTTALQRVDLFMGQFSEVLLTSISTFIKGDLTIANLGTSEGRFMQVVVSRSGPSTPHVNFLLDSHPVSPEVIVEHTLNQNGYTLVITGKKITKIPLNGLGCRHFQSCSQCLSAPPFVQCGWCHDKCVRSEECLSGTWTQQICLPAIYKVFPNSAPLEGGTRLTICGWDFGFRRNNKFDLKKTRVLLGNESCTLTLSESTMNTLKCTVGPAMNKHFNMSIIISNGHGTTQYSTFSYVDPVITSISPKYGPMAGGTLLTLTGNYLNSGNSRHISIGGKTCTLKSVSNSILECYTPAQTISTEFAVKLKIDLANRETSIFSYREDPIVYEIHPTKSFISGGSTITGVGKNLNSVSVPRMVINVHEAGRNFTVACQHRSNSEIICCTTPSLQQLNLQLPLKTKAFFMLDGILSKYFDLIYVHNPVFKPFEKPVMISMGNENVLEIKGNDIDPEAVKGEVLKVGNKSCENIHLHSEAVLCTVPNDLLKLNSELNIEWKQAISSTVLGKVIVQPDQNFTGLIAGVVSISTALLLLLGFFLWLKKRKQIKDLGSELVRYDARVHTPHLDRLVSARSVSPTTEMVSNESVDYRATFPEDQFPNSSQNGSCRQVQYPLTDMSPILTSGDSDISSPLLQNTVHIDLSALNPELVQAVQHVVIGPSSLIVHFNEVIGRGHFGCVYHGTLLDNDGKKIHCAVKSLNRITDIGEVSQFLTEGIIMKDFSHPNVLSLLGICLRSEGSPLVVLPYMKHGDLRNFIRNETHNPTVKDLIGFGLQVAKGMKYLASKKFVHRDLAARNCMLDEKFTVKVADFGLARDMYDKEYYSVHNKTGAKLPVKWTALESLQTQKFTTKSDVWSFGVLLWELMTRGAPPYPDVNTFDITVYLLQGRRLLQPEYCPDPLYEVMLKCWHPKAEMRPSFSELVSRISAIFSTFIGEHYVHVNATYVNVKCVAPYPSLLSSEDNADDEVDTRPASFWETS
CHEK1, sequence (O14757 whole entry): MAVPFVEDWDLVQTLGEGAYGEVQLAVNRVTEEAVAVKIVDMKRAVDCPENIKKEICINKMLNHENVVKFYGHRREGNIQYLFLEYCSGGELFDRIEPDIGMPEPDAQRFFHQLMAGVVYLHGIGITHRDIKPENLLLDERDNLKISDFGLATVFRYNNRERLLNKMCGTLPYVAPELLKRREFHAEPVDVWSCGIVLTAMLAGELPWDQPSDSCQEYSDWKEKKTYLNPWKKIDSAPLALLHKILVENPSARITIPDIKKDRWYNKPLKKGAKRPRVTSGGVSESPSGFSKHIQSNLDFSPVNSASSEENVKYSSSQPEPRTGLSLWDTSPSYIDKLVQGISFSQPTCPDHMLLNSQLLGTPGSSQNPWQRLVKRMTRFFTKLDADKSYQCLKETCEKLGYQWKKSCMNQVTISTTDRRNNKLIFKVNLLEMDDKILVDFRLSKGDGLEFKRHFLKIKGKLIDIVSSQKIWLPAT
TSSK3, sequence (Q96PN8 whole entry): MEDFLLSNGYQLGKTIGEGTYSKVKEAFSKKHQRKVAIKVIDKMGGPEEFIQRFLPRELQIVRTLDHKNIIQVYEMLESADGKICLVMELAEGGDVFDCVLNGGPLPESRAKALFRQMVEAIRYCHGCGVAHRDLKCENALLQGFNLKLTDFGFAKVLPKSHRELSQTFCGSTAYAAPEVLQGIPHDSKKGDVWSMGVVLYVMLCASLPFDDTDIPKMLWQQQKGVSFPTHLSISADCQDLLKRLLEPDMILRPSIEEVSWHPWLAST

remaining binding at 100 µM (TSSK3): 100%
remaining binding at 100 µM (NDR1): 77%
remaining binding at 100 µM (MLK3): 73%
remaining binding at 100 µM (PRKG2): 76%
remaining binding at 100 µM (CSF1R-autoinhibited): 73%
remaining binding at 100 µM (CAMK4): 70%
remaining binding at 100 µM (KIT(L576P)): 71%
remaining binding at 100 µM (QSK): 89%
remaining binding at 100 µM (CDK11): 98%
remaining binding at 100 µM (SRPK3): 61%
remaining binding at 100 µM (MET(M1250T)): 73%
remaining binding at 100 µM (SRC): 77%
remaining binding at 100 µM (AKT1): 84%
remaining binding at 100 µM (ANKK1): 91%
remaining binding at 100 µM (CHEK1): 91%
remaining binding at 100 µM (DDR2): 88%
remaining binding at 100 µM [1]: 55%
remaining binding at 100 µM (MLK1): 92%
remaining binding at 100 µM (VRK2): 81%
remaining binding at 100 µM (AURKC): 100%
remaining binding at 100 µM (LATS2): 45%
remaining binding at 100 µM (ABL1-phosphorylated): 73%
Compound: C=C(C)[C@H]1CC=C(C)C(=O)C1 [S-carvone]
